The target of experiment [1] is T1, hPR (Homo sapiens, UniProt P06401).
T1 sequence (P06401 1-933): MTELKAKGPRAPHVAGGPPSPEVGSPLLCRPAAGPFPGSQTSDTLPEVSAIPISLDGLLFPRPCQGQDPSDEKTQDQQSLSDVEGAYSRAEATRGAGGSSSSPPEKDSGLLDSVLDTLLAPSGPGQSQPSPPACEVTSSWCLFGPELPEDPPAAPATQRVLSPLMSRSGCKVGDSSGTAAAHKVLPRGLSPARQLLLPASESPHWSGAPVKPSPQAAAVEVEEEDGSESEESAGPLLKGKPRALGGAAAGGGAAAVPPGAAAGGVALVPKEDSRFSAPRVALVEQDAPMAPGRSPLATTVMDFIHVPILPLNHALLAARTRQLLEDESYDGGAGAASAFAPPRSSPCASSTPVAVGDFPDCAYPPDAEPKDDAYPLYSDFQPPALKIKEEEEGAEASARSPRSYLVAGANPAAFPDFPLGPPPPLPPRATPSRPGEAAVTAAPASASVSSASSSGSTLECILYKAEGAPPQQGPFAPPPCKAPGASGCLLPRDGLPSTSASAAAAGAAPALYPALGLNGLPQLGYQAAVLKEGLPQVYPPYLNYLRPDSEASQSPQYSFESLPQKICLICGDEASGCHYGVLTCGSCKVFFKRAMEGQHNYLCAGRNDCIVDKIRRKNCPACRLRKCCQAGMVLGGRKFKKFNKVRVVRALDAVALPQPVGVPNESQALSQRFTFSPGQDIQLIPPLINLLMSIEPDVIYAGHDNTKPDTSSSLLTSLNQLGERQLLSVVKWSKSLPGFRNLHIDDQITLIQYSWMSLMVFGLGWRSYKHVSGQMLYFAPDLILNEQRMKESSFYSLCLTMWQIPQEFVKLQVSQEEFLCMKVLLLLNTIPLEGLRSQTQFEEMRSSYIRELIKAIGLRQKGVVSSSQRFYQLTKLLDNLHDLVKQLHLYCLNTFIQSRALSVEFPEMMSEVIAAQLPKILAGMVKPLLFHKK

Experiment [2] deals with ovariectomized female rats. As to the kind of experiment: Multi-endpoint adult rat model, uterus/breast tissue-selectivity. Type of experiment: in vivo. The following applies: ratio of relative efficacy to MPA in uterus verse in breast tissue at the same highest dose tested; estrone-treated ovariectomized rats, three days.
Source text: In this assay, advantage is taken of the fact that in the uterus, estrogens induce a proliferation and increase in the epithelial cell height and uterine wet weight, which can be antagonized by progestins. In the breast, estrogens induce a proliferation of the ductal network while progestins stimulate the growth of the lobular-alveolar end buds, which grow from the distal end of the ducts. […] Proliferating cells or inhibition of proliferating cells were quantitated either by measurements of cell height in sectioned and stained tissue samples or, in the case of the breast, immuno-histochemically labeled Brdu incorporated nuclei.
Experiment [3] deals with T1, hPR. As to the kind of experiment: hPR cotransfection assay in CV-1 cells, agonist mode. Type of experiment: cell-based. The note with it: CV-1 cells.
Procedure: (§1) Antagonist efficacy was determined as a function (%) of maximal inhibition of a reference agonist at EC50 concentration. All the cotransfection experiments were carried out in 96-well plates by automation (Beckman Biomomek automated workstation).
Experiment [4] has as its target T1, hPR. As to the kind of experiment: hPR cotransfection assay in CV-1 cells, antagonist mode. In kind it is cell-based. The note with it: CV-1 cells.
Procedure: as §1
The target in experiment [5] is T2, hPR (Homo sapiens, UniProt P06401).
T2 sequence (P06401 679-933 limits assumed): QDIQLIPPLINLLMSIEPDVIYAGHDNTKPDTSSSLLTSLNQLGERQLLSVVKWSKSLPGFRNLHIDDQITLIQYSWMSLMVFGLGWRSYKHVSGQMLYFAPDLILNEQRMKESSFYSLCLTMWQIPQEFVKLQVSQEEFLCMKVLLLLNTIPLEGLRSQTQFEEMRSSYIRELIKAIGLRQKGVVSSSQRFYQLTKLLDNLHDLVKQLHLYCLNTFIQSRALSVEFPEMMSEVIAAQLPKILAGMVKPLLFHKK
Nature of the experiment: T47D alkaline phosphatase assay, agonist mode. In kind it is cell-based. The following applies: T47D human breast cancer cells.
Source text: The potential tissue-selectivities of the selected analogues were examined by using the T47D alkaline phosphatase assay that was developed from human breast cancer cells with endogenous PRs.

The target in experiment [6] is T3, hPR-A (Homo sapiens, UniProt P06401).
T3 sequence (P06401 1-769 isoform P06401-2): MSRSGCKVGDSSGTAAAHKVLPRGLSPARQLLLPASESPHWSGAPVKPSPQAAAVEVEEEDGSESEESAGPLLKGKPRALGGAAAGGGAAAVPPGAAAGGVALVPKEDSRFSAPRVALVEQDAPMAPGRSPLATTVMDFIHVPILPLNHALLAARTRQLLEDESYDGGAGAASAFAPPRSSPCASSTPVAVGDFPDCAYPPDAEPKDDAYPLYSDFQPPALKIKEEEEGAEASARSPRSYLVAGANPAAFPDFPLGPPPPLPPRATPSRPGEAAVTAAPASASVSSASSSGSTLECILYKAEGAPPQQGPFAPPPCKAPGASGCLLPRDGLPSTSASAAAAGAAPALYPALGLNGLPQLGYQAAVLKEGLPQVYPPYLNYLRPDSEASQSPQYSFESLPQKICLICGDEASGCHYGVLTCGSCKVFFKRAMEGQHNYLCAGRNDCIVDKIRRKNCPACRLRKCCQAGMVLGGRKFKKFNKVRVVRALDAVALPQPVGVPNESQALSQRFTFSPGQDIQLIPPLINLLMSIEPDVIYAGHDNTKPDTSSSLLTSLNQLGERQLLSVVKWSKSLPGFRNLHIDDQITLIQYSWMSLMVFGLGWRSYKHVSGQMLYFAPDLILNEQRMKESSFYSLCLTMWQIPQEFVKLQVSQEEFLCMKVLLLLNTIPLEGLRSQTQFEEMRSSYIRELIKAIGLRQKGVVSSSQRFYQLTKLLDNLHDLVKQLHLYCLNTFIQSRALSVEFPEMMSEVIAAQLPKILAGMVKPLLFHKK
As to the kind of experiment: Receptor competitive binding assay. The following applies: read-out: PR binding Ki.

The subject of experiment [7] is immature rabbits. As to the kind of experiment: McPhail (Clauberg) rabbit assay of progestational activity. Type of experiment: in vivo. The following applies: Oryctolagus cuniculus; estradiol-primed immature rabbits; glandular changes of the uterus; read-out: potency (MAD in mg/kg), minimum active dose. As to the method:
The superiority of the 7,9-difluoro analogue compounds of the present invention was further characterized utilizing the McPhail rabbit model according to the following illustrative Examples. The Clauberg or McPhail assay is a classic assay utilizing rabbits to measure progestational activity. […] In this assay, immature rabbits are treated initially with estradiol, which induces growth in the uterus. This is followed by a progestin, which causes a large change in the glandular content of the uterus. It is this change in the glandular component which is a measure of the progestational activity of a progestin. The measurement of these glandular changes is carried out histologically using stained sections of the uterus. The in vivo comparison between the new 7,9-difluoro compounds and analogues with substitution patterns different from 7,9-difluoro (U.S. Pat. Nos. 5,693,646 and 5,696,127) is tabulated in Tables 7 and 8. The in vivo potency of the progestins is presented as the minimum active dose (MAD).

Where [8] appears, read: footnote b: EC50 data from J. Med. Chem. 41 (1998), 291 and 303; read-out: hPR agonist potencies (EC50 in nM) in the cotransfection assay; cited from earlier work.
[9] abbreviates: footnote a: EC50 data from U.S. Pat. Nos. 5693646/5693647/5696127; read-out: hPR agonist potencies (EC50 in nM) in the cotransfection assay; cited from earlier work.

Here are results for twelve compounds from patent US7163946B2 (Ligand Pharmaceuticals Incorporated, priority 2002, dated 2007).

Broadly, the EC50 is the concentration at which the effect is half-maximal. For orientation: IC50 means the concentration needed to halve the response being measured. Lower therefore signals inhibition by little substance. The term Ki denotes a measure of affinity in units of concentration, obtained from inhibition or displacement.

Like-named read-outs stand apart in the source and are kept apart here.

Turning to `CC1=CC(C)(C)Nc2ccc3c(c21)C(=Cc1ccc(F)cc1)Oc1ccccc1-3` [Formula II X=H 4-F-Ph], the EC50 in experiment [1] (setting [8]) was 59.5 nM.
Consider `CC1=CC(C)(C)Nc2ccc3c(c21)C(=Cc1ccccc1)Oc1ccccc1-3` [Formula II X=H Phenyl], for which the EC50 in experiment [1] (setting [9]) was 33 nM.
Take `CC1=CC(C)(C)Nc2ccc3c(c21)C(=Cc1cccc(F)c1)Oc1ccccc1-3` [Formula II X=H 3-F-Ph, reference compound]: in experiment [2], the uterus/breast tissue-selectivity was 0.69. In addition, the EC50 in experiment [1] (read-out: hPR agonist potencies (EC50 in nM) in the cotransfection assay; footnote b: EC50 data from J. Med. Chem. 41 (1998), 291 and 303; cited from earlier work) was 7.6 nM.
For `CC1=CC(C)(C)Nc2ccc3c(c21)C(c1ccc(Cl)c(C)c1)Oc1c(F)cc(F)cc1-3` (single isomer, unassigned; (-)) [Compound 38, (−)-7,9-difluoro-5-(4-chloro-3-methylphenyl)-1,2-dihydro-2,2,4-trimethyl-5H-chromeno[3,4-f]quinoline], the EC50 in experiment [3] (read-out: hPR Agonist CV-1 Cells EC50) stood at 1.2 nM. Besides, the “hPR Agonist CV-1 Cells Eff. (%)” value in experiment [3] (relative to maximal response of progesterone as 100%) was determined as 110%. Moreover, the IC50 in experiment [4] is above 10000 nM. Moreover, in experiment [4] (maximal inhibition of reference agonist at EC50 concentration), the “hPR Antagonist CV-1 Cells Eff. (%)” value is “na (na = not active (i.e. efficacy of <20 and potency of >10,000))”. Further, in experiment [5], the EC50 is 6.2 nM and the “hPR Agonist T47D cells Eff. (%)” value was 54%. Besides, the Ki in experiment [6] amounted to 2 nM. In addition, in experiment [2], the uterus/breast tissue-selectivity was found to be 2.8. In experiment [7], the minimal effective dose stood at 0.25 mg/kg.
`CC1=CC(C)(C)Nc2ccc3c(c21)C(=Cc1ccccc1C)Oc1ccc(F)cc1-3` [Formula II X=9-F 2-Me-Ph, reference compound]: in experiment [2], the uterus/breast tissue-selectivity is given as 2.3. For the same compound, the minimal effective dose in experiment [7] is 1.2 mg/kg. Moreover, the EC50 in experiment [1] (setting [9]) is 4 nM.
As to `CC1=CC(C)(C)Nc2ccc3c(c21)C(=Cc1ccccc1Cl)Oc1ccccc1-3` [Formula II X=H 2-Cl-Ph], the half-maximal effective concentration (EC50) in experiment [1] (setting [8]) was 57.8 nM.
With `CC#CC1Oc2c(F)cc(F)cc2-c2ccc3c(c21)C(C)=CC(C)(C)N3` (single isomer, unassigned; (-)) [Compound 75, (−)-7,9-difluoro-5-(1-propynyl)-1,2-dihydro-2,2,4-trimethyl-5H-chromeno[3,4-f]quinoline], the uterus/breast tissue-selectivity in experiment [2] amounted to 4.2. Also, the minimal effective dose in experiment [7] was below 0.5 mg/kg.
As to `CC1=CC(C)(C)Nc2ccc3c(c21)C(c1cccc(F)c1)Oc1ccccc1-3` (stereo not shown) [Formula I X=H 3-F-Ph], in experiment [1] (setting [9]), the EC50 was 9 nM.
As to `CC1=CC(C)(C)Nc2ccc3c(c21)C(=Cc1cc(F)ccc1F)Oc1ccccc1-3` [Formula II X=H 2,5-diF-Ph], the EC50 in experiment [1] (setting [8]) was 14.7 nM.
As to `CC1=CC(C)(C)Nc2ccc3c(c21)C(=Cc1ccccc1F)Oc1ccccc1-3` [Formula II X=H 2-F-Ph], the EC50 in experiment [1] (setting [8]) was 29 nM.
`CC1=CC(C)(C)Nc2ccc3c(c21)C(=Cc1ccccc1C)Oc1ccccc1-3` [Formula II X=H 2-Me-Ph]: in experiment [1] (setting [8]), the EC50 is 5.7 nM.
For the compound `CC1=CC(C)(C)Nc2ccc3c(c21)C(c1ccccc1)Oc1ccccc1-3` (stereo not shown) [Formula I X=H Ph, reference compound], the uterus/breast tissue-selectivity in experiment [2] is 0.78. In addition, the EC50 in experiment [1] (setting [9]) is 203 nM.
